{"source": "patent US10856562B2", "about": "“Flavor composition and edible compositions containing same” (MARS, INCORPORATED, priority 2013, dated 2020)", "format_in_all_cases": "in vivo, human", "key": {"panelists [1]": {"tested_on": "panelists", "assay": "Return to baseline protocol: salt reference re-tasted at 1 minute intervals", "conditions": "for Time needed to return to baseline as the concentration increases: 0.1 to 40.0/50.0 ppb", "procedure": "(§1) After evaluating the sample for salt and other perceptions (step 3 above), each panelist re-tasted the salt reference (5.0 intensity) at 1 minute intervals until their perception of the saltiness intensity of the reference returned to 5.0. Each panelist recorded salt intensity at each interval and took qualitative notes on other perceptions seen in aftertaste. Attribute Perception Protocol • The panelists evaluated each sample using the following procedure • Descriptive Profiles (flavor and chemical feeling factors) of 5 levels of salt enhancing solutions • Individual data was collected for the flavor and chemical feeling factors of the product in-mouth • Increased Salt Perception Protocol • Each panelist tasted salt 5 reference (0.35% salt solution)—to ground themselves on salt intensity of 5.0. • Each panelist tasted the test sample (0.1 ppb, 0.5 ppb, 1.0 ppb, 10.0 ppb or 40.0/50.0 ppb all in 0.2% NaCl solution: only one per session) • Each panelist then re-tasted the salt 5 reference and rated it for salt intensity as well as any other basic taste, chemical feeling factor, or aromatic perceived. This captured any increased salt perception indicated by the test sample as well as any other perceptions present. • Return to Baseline Protocol • After evaluating the sample for salt & other perceptions, panelists re-tasted the salt 5 reference at 1 minute intervals until their perception of the salt 5 saltiness intensity had returned to 5.0. Each panelist recorded their salt intensity at each interval and took qualitative notes on other perceptions seen in aftertaste. Sample Preparation"}, "panel of trained tasters": {"tested_on": "panel of trained tasters", "assay": "Saltiness of sodium-reduced pasta sauce with peptides, panel of trained tasters", "conditions": "n=4", "procedure": "Food product compositions were prepared by admixing flavor composition peptide(s) of the present application with food compositions, wherein the level of sodium (NaCl) in the food product compositions was reduced. The level of sodium was reduced by 25%, 50% or 75% compared to food products compositions that were not admixed with flavor composition peptides. The food product compositions comprising the flavor composition peptides were tasted by a panel of trained tasters and the level of saltiness was compared to the control food products.\nThe peptides pGlu-Val-Leu (identified as “SE-13”), pGlu-Val-Cys (identified as “UE-30”) and pGlu-Val-Val (identified as “SE-17”) were tested in Pasta Sauce. The control pasta sauce comprised 540 mg sodium (NaCl) in a 125 g serving."}, "panelists [2]": {"tested_on": "panelists", "assay": "Descriptive profile (Spectrum method) of peptide in 0.2% NaCl solution, in-mouth", "conditions": "for Astringent, in-mouth perception / Bitter, in-mouth perception / Flinty/Mineral, in-mouth perception / Metallic, in-mouth perception / Numbing, in-mouth perception / Salt, in-mouth perception (mean salt perception in-mouth) / Sour, in-mouth perception / Sweet, in-mouth perception: mean score, 15-point scale; for Salt perception in-mouth as the concentration increases: 0.1 to 40.0/50.0 ppb in 0.2% NaCl", "procedure": "Descriptive Profiles (Flavor and Chemical Feeling Factors) of five use levels of a pGlu-Val-Leu flavor composition were determined using the Spectrum™ method. The five use levels were as follows: 0.1 ppb, 0.5 ppb, 1.0 ppb, 10.0 ppb and 40.0 ppb.\nData was collected for the flavor and chemical feeling factors of the product in-mouth for each of the five use levels according to the following protocol. One replication was collected for the flavor and chemical feeling factors of the product in-mouth. 6-9 panelists evaluated per session.\n2. Each panelist tasted a test sample (0.1 ppb, 0.5 ppb, 1.0 ppb, 10.0 ppb or 40.0 ppb all in 0.2% NaCl solution). Only one sample was tasted per session.\nDescriptive attributes (e.g., taste, flavor and chemical feeling factors) of six use levels of pGlu-Val-Leu (SE-13), pGlu-Val (SE-14) and pGlu-Val-Val (SE-17) flavor composition peptides were determined. The six use levels were as follows: 0.1 ppb, 0.5 ppb, 1.0 ppb, 10.0 ppb, 40.0 ppb and 50.0 ppb.\nData was collected for the attributes of the product in-mouth for the use levels according to the following protocol: • The samples were analyzed for flavor and aftertaste by six-nine members of a panel, trained and experienced in appearance, flavor and texture evaluation using the Spectrum™ method. Samples in solution were evaluated across multiple panel sessions. • The strength of each attribute was rated on a 15-point scale, where 0=none and 15=very strong. • This scale incorporates the ability to use tenths of a point and therefore has the potential of 150 scale differentiations. • The scale may be expanded beyond 15 points to include extreme ratings if necessary.\nas §1, with “Attribute” for “After evaluating the sample for salt and other perceptions (step 3 above), each panelist re-tasted the salt reference (5.0 intensity) at 1 minute intervals until their perception of the saltiness intensity of the reference returned to 5.0. Each panelist recorded salt intensity at each interval and took qualitative notes on other perceptions seen in aftertaste. Attribute”\nThe 0.1, 0.5, 1.0 10, 40, and 50 ppb test samples of the flavor composition peptides were prepared in water as described in table 4.\nThe panelists evaluated each sample for the attributes described in table 5."}}, "note": "Entries after “also recorded” stand apart in the source; their conditions may differ. Square brackets hold non-standard residues; d marks the D form. Ends that are not written are not given here. pGlu = O=C1CC[C@@H](C(=O)O)N1"}
{"substance": "[pGlu]-Val-Leu [SE-13]", "values": [{"measurement": "Mean time needed to return to baseline", "setting": "panelists [1]; 0.1 ppb in 0.2% NaCl", "value": 7.6, "unit": "min"}, {"measurement": "Mean time needed to return to baseline (min.)", "setting": "panelists [1]; 0.1 ppb in 0.2% NaCl", "value": 7.6, "unit": "min"}, {"measurement": "Time needed to return to baseline as the concentration increases", "setting": "panelists [1]", "value": "increases notably from 0.1 ppb to 0.5 ppb and from 10.0 ppb to 40.0 ppb; also recorded: does not necessarily increase"}, {"measurement": "Time needed to return to baseline as the concentration increases", "setting": "panelists [1]; listed as pGlu-Val-Leu", "value": "did not necessarily increase"}, {"measurement": "Mean time needed to return to baseline", "setting": "panelists [1]; 0.5 ppb in 0.2% NaCl", "value": 9.5, "unit": "min"}, {"measurement": "Mean time needed to return to baseline (min.)", "setting": "panelists [1]; 0.5 ppb in 0.2% NaCl", "value": 9.5, "unit": "min"}, {"measurement": "Mean time needed to return to baseline", "setting": "panelists [1]; 1.0 ppb in 0.2% NaCl", "value": 8.7, "unit": "min"}, {"measurement": "Mean time needed to return to baseline (min.)", "setting": "panelists [1]; 1.0 ppb in 0.2% NaCl", "value": 8.7, "unit": "min"}, {"measurement": "Mean time needed to return to baseline", "setting": "panelists [1]; 10.0 ppb in 0.2% NaCl", "value": 8.6, "unit": "min"}, {"measurement": "Mean time needed to return to baseline (min.)", "setting": "panelists [1]; 10.0 ppb in 0.2% NaCl", "value": 8.6, "unit": "min"}, {"measurement": "Mean time needed to return to baseline", "setting": "panelists [1]; 40.0 ppb in 0.2% NaCl", "value": 13.1, "unit": "min"}, {"measurement": "Mean time needed to return to baseline (min.)", "setting": "panelists [1]; 40.0 ppb in 0.2% NaCl", "value": 13.1, "unit": "min"}, {"measurement": "Time needed to return to baseline, comparison of SE-13, SE-14 and SE-17", "setting": "panelists [1]; overall", "value": "greatest"}, {"measurement": "Saltiness compared to control at 25% reduction", "setting": "panel of trained tasters; 25% sodium reduction, 10 and 1 ppb", "value": "to control, slightly less salty."}, {"measurement": "Saltiness compared to control", "setting": "panel of trained tasters; control 540 mg Na/serving, test 25, 50, 75% reduction, 10 ppb and 1 ppb", "value": "Test variables perceived less"}, {"measurement": "Astringent, in-mouth perception", "setting": "panelists [2]; 0.1 ppb in 0.2% NaCl", "value": 0.0}, {"measurement": "Bitter, in-mouth perception", "setting": "panelists [2]; 0.1 ppb in 0.2% NaCl", "value": 0.0}, {"measurement": "Flinty/Mineral, in-mouth perception", "setting": "panelists [2]; 0.1 ppb in 0.2% NaCl", "value": 0.1}, {"measurement": "Metallic, in-mouth perception", "setting": "panelists [2]; 0.1 ppb in 0.2% NaCl", "value": 0.1}, {"measurement": "Numbing, in-mouth perception", "setting": "panelists [2]; 0.1 ppb in 0.2% NaCl", "value": 0.0}, {"measurement": "Salt, in-mouth perception (mean salt perception in-mouth)", "setting": "panelists [2]; 0.1 ppb in 0.2% NaCl", "value": 2.3}, {"measurement": "Sour, in-mouth perception", "setting": "panelists [2]; 0.1 ppb in 0.2% NaCl", "value": 0.0}, {"measurement": "Sweet, in-mouth perception", "setting": "panelists [2]; 0.1 ppb in 0.2% NaCl", "value": 0.0}, {"measurement": "Level of the aromatics, basic tastes and chemical feeling factors in-mouth with increasing concentration", "setting": "panelists [2]; 0.1 to 40.0/50.0 ppb", "value": "does not increase"}, {"measurement": "Salt perception in-mouth as the concentration increases", "setting": "panelists [2]", "value": "does not increase notably; also recorded: Does not show a notable increase"}, {"measurement": "Salt perception in-mouth as the concentration increases", "setting": "panelists [2]; listed as pGlu-Val-Leu", "value": "did not significantly increase"}, {"measurement": "Astringent, in-mouth perception", "setting": "panelists [2]; 0.5 ppb in 0.2% NaCl", "value": 0.0}, {"measurement": "Bitter, in-mouth perception", "setting": "panelists [2]; 0.5 ppb in 0.2% NaCl", "value": 0.0}, {"measurement": "Flinty/Mineral, in-mouth perception", "setting": "panelists [2]; 0.5 ppb in 0.2% NaCl", "value": 0.3}, {"measurement": "Metallic, in-mouth perception", "setting": "panelists [2]; 0.5 ppb in 0.2% NaCl", "value": 0.3}, {"measurement": "Numbing, in-mouth perception", "setting": "panelists [2]; 0.5 ppb in 0.2% NaCl", "value": 0.0}, {"measurement": "Salt, in-mouth perception (mean salt perception in-mouth)", "setting": "panelists [2]; 0.5 ppb in 0.2% NaCl", "value": 2.8}, {"measurement": "Sour, in-mouth perception", "setting": "panelists [2]; 0.5 ppb in 0.2% NaCl", "value": 0.0}, {"measurement": "Sweet, in-mouth perception", "setting": "panelists [2]; 0.5 ppb in 0.2% NaCl", "value": 0.2}, {"measurement": "Astringent, in-mouth perception", "setting": "panelists [2]; 1.0 ppb in 0.2% NaCl", "value": 0.0}, {"measurement": "Bitter, in-mouth perception", "setting": "panelists [2]; 1.0 ppb in 0.2% NaCl", "value": 0.0}, {"measurement": "Flinty/Mineral, in-mouth perception", "setting": "panelists [2]; 1.0 ppb in 0.2% NaCl", "value": 0.5}, {"measurement": "Metallic, in-mouth perception", "setting": "panelists [2]; 1.0 ppb in 0.2% NaCl", "value": 0.1}, {"measurement": "Numbing, in-mouth perception", "setting": "panelists [2]; 1.0 ppb in 0.2% NaCl", "value": 0.0}, {"measurement": "Salt, in-mouth perception (mean salt perception in-mouth)", "setting": "panelists [2]; 1.0 ppb in 0.2% NaCl", "value": 2.3}, {"measurement": "Sour, in-mouth perception", "setting": "panelists [2]; 1.0 ppb in 0.2% NaCl", "value": 0.0}, {"measurement": "Sweet, in-mouth perception", "setting": "panelists [2]; 1.0 ppb in 0.2% NaCl", "value": 0.0}, {"measurement": "Astringent, in-mouth perception", "setting": "panelists [2]; 10.0 ppb in 0.2% NaCl", "value": 0.0}, {"measurement": "Bitter, in-mouth perception", "setting": "panelists [2]; 10.0 ppb in 0.2% NaCl", "value": 0.0}, {"measurement": "Flinty/Mineral, in-mouth perception", "setting": "panelists [2]; 10.0 ppb in 0.2% NaCl", "value": 0.3}, {"measurement": "Metallic, in-mouth perception", "setting": "panelists [2]; 10.0 ppb in 0.2% NaCl", "value": 0.1}, {"measurement": "Numbing, in-mouth perception", "setting": "panelists [2]; 10.0 ppb in 0.2% NaCl", "value": 0.0}, {"measurement": "Salt, in-mouth perception (mean salt perception in-mouth)", "setting": "panelists [2]; 10.0 ppb in 0.2% NaCl", "value": 3.1}, {"measurement": "Sour, in-mouth perception", "setting": "panelists [2]; 10.0 ppb in 0.2% NaCl", "value": 0.0}, {"measurement": "Sweet, in-mouth perception", "setting": "panelists [2]; 10.0 ppb in 0.2% NaCl", "value": 0.0}, {"measurement": "Astringent, in-mouth perception", "setting": "panelists [2]; 40.0 ppb in 0.2% NaCl", "value": 0.0}, {"measurement": "Bitter, in-mouth perception", "setting": "panelists [2]; 40.0 ppb in 0.2% NaCl", "value": 0.0}, {"measurement": "Flinty/Mineral, in-mouth perception", "setting": "panelists [2]; 40.0 ppb in 0.2% NaCl", "value": 0.4}, {"measurement": "Metallic, in-mouth perception", "setting": "panelists [2]; 40.0 ppb in 0.2% NaCl", "value": 0.1}, {"measurement": "Numbing, in-mouth perception", "setting": "panelists [2]; 40.0 ppb in 0.2% NaCl", "value": 0.0}, {"measurement": "Salt, in-mouth perception (mean salt perception in-mouth)", "setting": "panelists [2]; 40.0 ppb in 0.2% NaCl", "value": 2.8}, {"measurement": "Sour, in-mouth perception", "setting": "panelists [2]; 40.0 ppb in 0.2% NaCl", "value": 0.0}, {"measurement": "Sweet, in-mouth perception", "setting": "panelists [2]; 40.0 ppb in 0.2% NaCl", "value": 0.0}, {"measurement": "Umami like swelling of lips and tongue, in-mouth", "setting": "panelists [2]; all levels", "value": "Panelists also experience Umami like swelling of lips and tongue"}, {"measurement": "Umami like feeling factor of lip and tongue swelling", "setting": "panelists [2]; both in-mouth and after expectoration", "value": "Shows umami like feeling factor of lip and tongue swelling"}]}
